No end group written: not given here.
Columns and labels:
Assay type in all cases: cell-based, mouse
NkL-TAg cells = test: Induction of differentiation of NkL-TAg cells, sarcomeric α-actinin immunocytochemistry; details: for sarcomere formation as assessed by α-actinin immunocytochemistry: NkL-TAg cells prior to depletion of TAg; for induction of sarcomere formation: NkL-TAg cells after removal of TAg, in differentiation medium (5% horse serum, insulin, transferrin, selenium)
Procedure: (§1) Cell Culture. Cells were isolated from sub-endocardial tumor-like structures in the hearts of transgenic mice as previously described with some modifications (Paradis et al, 1996). Briefly, dissected tissues were minced and dissociated using an enzyme mix containing 0.2% […] (Worthington) and 0.6 mg/ml of pancreatin (Sigma). Cardiac cells derived from Nk-TAg and NkL-TAg mice were maintained in DMEM/F12 media supplemented with 100 IU/ml penicillin, 100 μg/ml streptomycin, 2 mM Lglutamine, and 10% fetal bovine serum (FBS) on plates coated with […] fibronectin and 0.1% 2 gelatin. Cloning cylinders were used to harvest cell clones. Cell growth curves were generated by plating 1.5×10^5 or 2×10^5 cells (as indicated) in growth medium onto 100 mm plates and counting total cell number every 24 hours for 5 days. Differentiation medium contains DMEM/F12 supplemented with 100 IU/ml penicillin, 100 μg/ml streptomycin, 2 mM L-glutamine, 5% heat inactivated horse serum, […], […] and 6.7 ng/ml sodium selenite.
Histochemical Analysis. Heart tissue was fixed in 10% phosphate-buffered formalin and stained with hematoxylin-eosin. Nk-TAg and NkL-TAg cells were cultured on coverslips and fixed for 10 minutes with either −20° C. methanol or 4% paraformaldehyde for immunohistochemistry. Blocking was performed by incubating fixed cells with 1.5% bovine serum albumin and 10% normal goat serum in PBS for 20 minutes. […] Secondary antibodies conjugated to either FITC or Texas Red (1:200, Vector Labs) were diluted in PBS and incubated for 30 minutes at room temperature. In some cases, nuclei were co-stained with DAPI (10 mg/ml) for 1 minute. Coverslips were mounted with Vectashield (Vector Laboratories) and fluorescence or confocal images were captured using Leica DMRXE or Zeiss 3.95 microscopes, respectively.
Viral Infection. Cells were infected with recombinant adenoviruses (Ad) at a multiplicity of infection (MOI) of 100 for 3 to 12 hrs. The medium was replaced with growth medium, and NkL-TAg cells were cultured for the indicated times before analyses. Recombinant adenoviruses were obtained from the following sources: Ad-Cre recombinase (Ad-Cre) was provided by Dr. Frank Graham (McMaster University) (Anton and Graham, 1995); GATA4 (Ad-GATA4), Nkx2.5 (Ad-Nkx2.5), MEK6 (Ad-MEK6), and GFP (Ad-GFP) were generated using the “Easy-Track” system as described (He et al., 1998); antisense HDAC4 and HDAC5 (Ad-HDAC4 or 5), expressing coding regions of HDAC genes in reverse orientation, were provided by Chun Zhang; MEF2C (Ad-MEF2C) was provided by Rebekka Nicol (HDAC 4/5 and MEF2c viruses were generated using pAC-CMV vector); constitutively active calcineurin (Ad-CnA), IGF-I receptor (Ad-IGFI), constitutively active CaMKI (Ad-CaMKI), β-galactosidase (Ad-LacZ) were generated by Dr. Robert Gerard (UT Southwestern) and were constructed using an in vitro Cre-lox recombination system (Aoki et al., 1999; Ng et al. 1999).

Nk-TAg cells [1] = test: α-actinin immunohistochemistry and sarcomere assembly in Nk-TAg cells; details: for assembly of sarcomeres: hypertrophic agents added (20 nM ET-1, 100 mM [sic] PE, 1 mM [sic] angiotensin II)
Procedure: Histochemical Analysis. Heart tissue was fixed in 10% phosphate-buffered formalin and stained with hematoxylin-eosin. Nk-TAg and NkL-TAg cells were cultured on coverslips and fixed for 10 minutes with either −20° C. methanol or 4% paraformaldehyde for immunohistochemistry. Blocking was performed by incubating fixed cells with 1.5% bovine serum albumin and 10% normal goat serum in PBS for 20 minutes. Primary antibodies were incubated for 30-60 minutes in 1.5% bovine serum albumin in PBS as follows: monoclonal anti-myosin (smooth) (1:100, Sigma), polyclonal antimyosin (skeletal) (1:100, Sigma), monoclonal anti-α-smooth muscle actin (1:100, Sigma), monoclonal anti-skeletal myosin (slow) (1:100, Sigma), polyclonal anti-connexin 43 (1:100, Sigma), monoclonal anti-α-sarcomeric actin clone 5C5 (1:100, Sigma), monoclonal anti-desmin (1:100, Sigma), monoclonal anti-calponin (1:100, Sigma), monoclonal anti-α-actinin (sarcomeric) clone EA-53 (1:200, Sigma), monoclonal anti-SV40 T antigen (1:100, Santa Cruz). Secondary antibodies conjugated to either FITC or Texas Red (1:200, Vector Labs) were diluted in PBS and incubated for 30 minutes at room temperature. In some cases, nuclei were co-stained with DAPI (10 mg/ml) for 1 minute. Coverslips were mounted with Vectashield (Vector Laboratories) and fluorescence or confocal images were captured using Leica DMRXE or Zeiss 3.95 microscopes, respectively.
Drug treatment. Drugs were added into cell culture media as indicated at the following concentrations: 100 mM phenylephrine (PE), 10 mM norepinephrine (NE), 10 ng/ml recombinant human transforming growth factor-β1 (TGFβ1) (R&D Systems), 1 mM dynorphin-β (Peninsula Laboratories), 1 mM trans- or cis-retinoic acid (Sigma), 15 ng/ml bone morphogenetic protein (BMP)-2/4 (Genetics Institute, Cambridge, Mass.), 1 mM angiotensin II (R&D Systems), 20 nM endothelin-1 (ET-1) (R&D Systems), 100 ng/ml insulin-like growth factor I (IGF-I) (Roche), 5-azacytidine (Sigma), and 10 mg/ml mitomycin C (Sigma).

Nk-TAg cells [2] = test: Proliferation of Nk-TAg cardiac cell lines; details: drug added to the growth medium; mitomycin C 10 mg/ml as printed
Procedure: as §1
Drug treatment. […]

**Q.** Which “sarcomere formation as assessed by α-actinin immunocytochemistry” value (from here on “sarcomere formation as assessed”) (NkL-TAg cells) does the source give for `CC1=C(/C=C/C(C)=C/C=C/C(C)=C/C(=O)O)C(C)(C)CCC1` [trans-retinoic acid] here?
**A.** no effect

**Q.** `Cn1c(=O)c2c(ncn2C)n(C)c1=O` [caffeine] was tested. Which “sarcomere formation as assessed” value (NkL-TAg cells) did it give?
**A.** no effect

**Q.** For `CNC[C@H](O)c1cccc(O)c1` [PE, phenylephrine], which “induction of sarcomere formation” value (NkL-TAg cells) is on record?
**A.** further induction of sarcomere formation in some cells

**Q.** What about the “sarcomere formation as assessed” value (NkL-TAg cells) of the same compound?
**A.** no effect

**Q.** And the assembly of sarcomeres (Nk-TAg cells [1])?
**A.** did not further induce the assembly of sarcomeres

**Q.** For “TGFb1: recombinant human transforming growth factor-β1 (R&D Systems)”, which “sarcomere formation as assessed” value (NkL-TAg cells) is on record?
**A.** no effect

**Q.** For “IGF-I: insulin-like growth factor I (Roche)”, which “sarcomere formation as assessed” value (NkL-TAg cells) is on record?
**A.** no effect

**Q.** For `[Cl-].[K+]` [potassium chloride], which “sarcomere formation as assessed” value (NkL-TAg cells) is on record?
**A.** no effect

**Q.** What does the source list for `NC[C@H](O)c1ccc(O)c(O)c1` [NE, norepinephrine]?
**A.** induction of sarcomere formation (NkL-TAg cells): further induction of sarcomere formation in some cells; sarcomere formation as assessed by α-actinin immunocytochemistry (NkL-TAg cells): no effect

**Q.** For `C[C@H](CCC(=O)O)C[C@H](C)C[C@H](C)C(=O)/C=C(\O)[C@H](C)C[C@H](C)C/C=C/[C@@H](C)[C@@H](O)[C@@H](C)[C@@H](O)C[C@@H]1CC[C@@](C)([C@H]2CC[C@@](C)([C@@H](C)O)O2)O1` [ionomycin], which “sarcomere formation as assessed” value (NkL-TAg cells) is on record?
**A.** no effect

**Q.** Which “sarcomere formation as assessed” value (NkL-TAg cells) does the source give for bFGF: basic fibroblast growth factor here?
**A.** no effect

**Q.** For “angiotensin II (DRVYIHPF; Angiotensin-2; UniProt P01019 25-32, looked up)”, which assembly of sarcomeres (Nk-TAg cells [1]) is on record?
**A.** did not further induce the assembly of sarcomeres

**Q.** How did the assembly of sarcomeres (Nk-TAg cells [1]) turn out when “endothelin-1 (CSCSSLMDKECVYFCHLDIIW; ends and bridges not checked; cysteine pairing not given here; UniProt P05305 53-73, looked up) [ET-1]” was run?
**A.** did not further induce the assembly of sarcomeres

**Q.** With `CO[C@@]12[C@H](COC(N)=O)C3=C(C(=O)C(C)=C(N)C3=O)N1C[C@@H]1N[C@@H]12` [mitomycin C] as the compound, how does the “expression of α-actinin” value (Nk-TAg cells [1]; immunohistochemistry, in the cytoplasm as unassembled Z-lines, mitomycin C 10 mg/ml as printed) read?
**A.** enhanced expression of α-actinin

**Q.** What about the “proliferation of the Nk-TAg cells” value (Nk-TAg cells [2]) of the same compound?
**A.** abated proliferation

**Q.** For dynorphin-β, which “sarcomere formation as assessed” value (NkL-TAg cells) is on record?
**A.** no effect

**Q.** How did the “sarcomere formation as assessed” value (NkL-TAg cells) turn out when `Nc1ncn([C@@H]2O[C@H](CO)[C@@H](O)[C@H]2O)c(=O)n1` [5-azacytidine] was run?
**A.** no effect

**Q.** `CC1=C(/C=C/C(C)=C/C=C/C(C)=C\C(=O)O)C(C)(C)CCC1` [cis-retinoic acid] was tested. Which “sarcomere formation as assessed” value (NkL-TAg cells) did it give?
**A.** no effect
